Reference: US20230146455A1, “TREATMENT OF INFLAMMATORY DISEASES WITH PEPTIDES AND PHARMACEUTICAL COMPOSITIONS” (Yuyu Pharma, Inc., priority 2020, published 2023)
Where “and” joins values, the source holds several entries; their conditions need not be identical. Equal entries are not always repeated. Where a SMILES comes first, the peptide text is derived from it. [ ]: non-standard residue; d: D form. Hyp = O=C(O)[C@@H]1C[C@@H](O)CN1

Tested on: IL-1 beta/IL-1F2
Assay: Example 9 Luminex, LPS hPBMCs: IL-1 beta/IL-1F2
Assay type: cell-based, human
Description: Treatment Human PBMCs were pretreated with YY-101, YDE-011 and YDE-043 or reference compound; Xiidra® at various concentration (ranging from 1 nM to 100 uM) for 2 h before stimulation. An equal volume of 0.5% DMSO was used as a vehicle control. Then, the cells were treated with LPS at 5 ug/ml. The supernatants from treated cells were harvested at 24 h and placed in a 96 well for Luminex cytokine & chemokine profiling using a Luminex 200 multiplex assay (Luminex; R&D system, USA).
The main study arm with triplicate wells per group in a 24-well plate: • 1. Blank • 2. PBMC: 0.5% DMSO • 3. PBMC+LPS (5 ug/ml) • 4. PBMC+YY-101 100 uM • 5. PBMC+YY-101 10 uM • 6. PBMC+YY-101 1 uM • 7. PBMC+YY-101 0.1 uM • 8. PBMC+YY-101 0.01 uM • 9. PBMC+LPS (5 ug/ml)+Xiidra®100 uM • 10. PBMC+LPS (5 ug/ml)+Xiidra® 10 uM • 11. PBMC+LPS (5 ug/ml)+Xiidra® 1 uM • 12. PBMC+LPS (5 ug/ml)+Xiidra®0.1 uM • 13. PBMC+LPS (5 ug/ml)+Xiidra®0.01 uM • 14. PBMC+LPS (5 ug/ml)+Xiidra®0.001 uM • 15. PBMC+LPS (5 ug/ml)+YY-101 100 uM • 16. PBMC+LPS (5 ug/ml)+YY-101 10 uM • 17. PBMC+LPS (5 ug/ml)+YY-101 1 uM • 18. PBMC+LPS (5 ug/ml)+YY-101 0.1 uM • 19. PBMC+LPS (5 ug/ml)+YY-101 0.01 uM • 20. PBMC+LPS (5 ug/ml)+YY-101 0.001 uM • 21. PBMC+LPS (5 ug/ml)+YDE-011 100 uM • 22. PBMC+LPS (5 ug/ml)+YDE-011 10 uM • 23. PBMC+LPS (5 ug/ml)+YDE-011 1 uM • 24. PBMC+LPS (5 ug/ml)+YDE-011 0.1 uM • 25. PBMC+LPS (5 ug/ml)+YDE-011 0.01 uM • 26. PBMC+LPS (5 ug/ml)+YDE-011 0.001 uM • 27. PBMC+LPS (5 ug/ml)+YDE-043 100 uM • 28. PBMC+LPS (5 ug/ml)+YDE-043 10 uM • 29. PBMC+LPS (5 ug/ml)+YDE-043 1 uM • 30. PBMC+LPS (5 ug/ml)+YDE-043 0.1 uM • 31. PBMC+LPS (5 ug/ml)+YDE-043 0.01 uM • 32. PBMC+LPS (5 ug/ml)+YDE-043 0.001 uM
Multiplex assay was used to measure 30 cytokines and chemokines. The 1:2, 1:10 and 1:200 diluted cell supernatant and serial dilution of the standard were dispensed into a 96 well plate at 50 ul/well. Then, the pre-mixed cocktail of antibody-coated magnetic beads was dispensed at 50 ul/well and incubated at room temperature for 2 h in a horizontal orbital microplate shaker at 800±500 rpm. The beads were washed using a magnetic device to prevent loss. The biotin-antibody was dispensed in 50 ul of each well and incubated at room temperature for 1 h in a shaker at 800±500 rpm. After washing, streptavidin-PE was added at 50 ul/well and incubated at room temperature for 30 min in a shaker under the same conditions. Finally, after washing, wash buffer (100 ul/well) was added to the plate and incubated in a shaker for 2 min. The Luminex™ 200 setting were set according to the manufacturer's protocol. The data was calculated with a standard five-parameter logistic nonlinear regression analysis of the data (xPonent software 4.2, USA). The levels of cytokine/chemokine are normalized to the live cell counts (1×10^5 cells/mL) and presented as concentrations per mL (pg/mL or ng/mL).

[1] = PBMC + LPS(5 ug/ml) + test article 0.01 uM, single replicates
[2] = PBMC + LPS(5 ug/ml) + test article 0.1 uM, Mean
[3] = PBMC + LPS(5 ug/ml) + test article 0.1 uM, single replicates
[4] = PBMC + LPS(5 ug/ml) + test article 1 uM, Mean
[5] = PBMC + LPS(5 ug/ml) + test article 1 uM, single replicates
[6] = PBMC + LPS(5 ug/ml) + test article 10 uM, Mean
[7] = PBMC + LPS(5 ug/ml) + test article 10 uM, single replicates
[8] = PBMC + LPS(5 ug/ml) + test article 100 uM, Mean
[9] = PBMC + LPS(5 ug/ml) + test article 100 uM, single replicates
[10] = PBMC + test article 0.01 uM, no LPS, Mean
[11] = PBMC + test article 0.01 uM, no LPS, single replicates
[12] = PBMC + test article 0.1 uM, no LPS, Mean
[13] = PBMC + test article 0.1 uM, no LPS, single replicates
[14] = PBMC + test article 1 uM, no LPS, Mean
[15] = PBMC + test article 1 uM, no LPS, single replicates
[16] = PBMC + test article 10 uM, no LPS, Mean
[17] = PBMC + test article 10 uM, no LPS, single replicates
[18] = PBMC + test article 100 uM, no LPS, Mean
[19] = PBMC + test article 100 uM, no LPS, single replicates

With `CC(C)C[C@H](NC(=O)CNC(=O)[C@H](CC(=O)O)NC(=O)[C@H](CCC(N)=O)NC(=O)CNC(=O)[C@@H]1C[C@@H](O)CN1)C(=O)N[C@@H](C)C(=O)NCC(=O)N1CCC[C@H]1C(=O)N[C@@H](CCCCN)C(=O)O` [YY-101] (H-[Hyp]GQDGLAGPK-OH; N-terminus and C-terminus assumed) the Concentration [1] was 8405.7 pg/mL and 8552.3 pg/mL and 8212.4 pg/mL, the MFI [1] was 2188.5 and 2227.5 and 2137.0 and the conc/live cell [1] was 1313.4 pg/10^5 and 1425.4 pg/10^5 and 1346.3 pg/10^5. It also gave a Concentration [2] of 8511.2 pg/mL, an MFI [2] of 2216.5 and a conc/live cell [2] of 1463.1 pg/10^5. The Concentration [3] was 8266.8 pg/mL and 8740.8 pg/mL and 8526.0 pg/mL, the MFI [3] was 2151.5 and 2277.5 and 2220.5 and the conc/live cell [3] was 1333.4 pg/10^5 and 1680.9 pg/10^5 and 1375.2 pg/10^5. The Concentration [4] was 7838.4 pg/mL, the MFI [4] was 2036.8 and the conc/live cell [4] was 1203.9 pg/10^5. For the same compound, the Concentration [5] was 8218.0 pg/mL and 7821.7 pg/mL and 7475.4 pg/mL, the MFI [5] was 2138.5 and 2032.5 and 1939.5 and the conc/live cell [5] was 1304.4 pg/10^5 and 1101.6 pg/10^5 and 1205.7 pg/10^5. It also gave a Concentration [6] of 8659.2 pg/mL, an MFI [6] of 2255.8 and a conc/live cell [6] of 1311.5 pg/10^5. The Concentration [7] was 8518.5 pg/mL and 8816.3 pg/mL and 8642.7 pg/mL, the MFI [7] was 2218.5 and 2297.5 and 2251.5 and the conc/live cell [7] was 1419.7 pg/10^5 and 1377.5 pg/10^5 and 1137.2 pg/10^5. The Concentration [8] was 12179.5 pg/mL, the MFI [8] was 3163.2 and the conc/live cell [8] was 2105.8 pg/10^5. For the same compound, the Concentration [9] was 12944.3 pg/mL and 11783.1 pg/mL and 11811.0 pg/mL, the MFI [9] was 3353.5 and 3064.5 and 3071.5 and the conc/live cell [9] was 2054.7 pg/10^5 and 1900.5 pg/10^5 and 2362.2 pg/10^5. It also gave a Concentration [10] of 5.5 pg/mL, an MFI [10] of 2.5 and a conc/live cell [10] of 0.6 pg/10^5. For the same compound, the Concentration [11] was 5.5 pg/mL, the MFI [11] was 0.5 and 4.5 and the conc/live cell [11] was 0.0 pg/10^5 and 1.2 pg/10^5. The MFI [12] was 1.5, the conc/live cell [12] was 0.0 pg/10^5 and the MFI [13] was 1.5. It also gave a conc/live cell [13] of 0.0 pg/10^5, an MFI [14] of 2.0 and a conc/live cell [14] of 0.0 pg/10^5. The MFI [15] was 3.5 and 0.5, the conc/live cell [15] was 0.0 pg/10^5 and the Concentration [16] was 122.9 pg/mL. It also gave an MFI [16] of 13.0, a conc/live cell [16] of 9.6 pg/10^5 and a Concentration [17] of 122.9 pg/mL. For the same compound, the MFI [17] was 23.5 and 2.5, the conc/live cell [17] was 19.2 pg/10^5 and 0.0 pg/10^5 and the Concentration [18] was 159.6 pg/mL. For the same compound, the MFI [18] was 31.5, the conc/live cell [18] was 24.7 pg/10^5 and the Concentration [19] was 278.4 pg/mL and 40.7 pg/mL. The MFI [19] was 53.5 and 9.5, the conc/live cell [19] was 43.5 pg/10^5 and 5.8 pg/10^5 and the “LPS-induced IL-I3 levels (in words)” value (at 100.iM, LPS 5 ug/mL 24 hrs) was “further increased”.
